Experimental data published in US12570606B2, “Myeloperoxidase imaging agents” (The General Hospital Corporation, priority 2016, dated 2026).
Read-outs that look alike come from different tables or passages of the source.

Columns and labels:
[1] = Dynamic PET study of Compound 9 over 3 hours; type: in vivo, mouse; details: dynamic study over 3 hours
[2] = Stability of Compound 9 formulated for injection at room temperature; type: physicochemical
Protocol: Radiolabeling chemistry was performed using automated synthesis of the following steps: (1) azeotropic drying of [^18F]-fluoride; (2) [^18F]-fluorination; (3) Boc deprotection; and (4) HPLC purification, followed by solid-phase formulation of the final product. The synthesis module was operated in the following sequences with numerical references to FIG. 1. Automated syntheses were performed on a Synthra (Hamburg, Germany) model RN Plus automated synthesizer module. Boc-deprotection was conducted with 0.4 mmol aqueous HCl at 95° C. added directly to the labeling reaction mixture without any prior purification. The two-step synthesis can be finished in approximately 80 min with the total radiochemical yield of 47% after decay correction. • 1. [^18F]-Fluoride, received from PETNET (Waltham, Mass.), was produced by the ^18O(p,n)^18F nuclear reaction and delivered to the reagent vial A (A) of the radiosynthesis module via syringe after mixing with tetrabutylammonium bicarbonate ([…], 75 mM in H2O, 250 μL) and acetonitrile (MeCN, 300 μL). • 2. Automated synthesis began with the addition the [^18F]-fluoride/TBAB mixture (A) and MeCN (B) to the reaction vessel 1 (RV1). • 3. […] The eluent was monitored by UV (λ=254 nm) and radiochemical detectors connected in series. • 8. […]

[3] = Pharmacokinetics and biodistribution after i.v. injection; type: in vivo, wild-type C57BL/6 mice; details: for half-life: C57BL/6, mouse, blood, iv, i.v. tail vein
Protocol: The pharmacokinetic and biodistribution of Compound 9 was evaluated in wild-type C57BL/6 mice. After systemic intravenous (i.v.) injection via the tail vein, blood samples were collected to determine clearance rate of Compound 9 from the blood. The major organs of the mouse were harvested and the radioactivity was measured.

[4] = Blood brain barrier assay, PET brain uptake; type: in vivo, Female C57Bl/6J mice
Protocol: Female C57Bl/6J mice were injected intravenously with either 3′-deoxy-3′-^18F-fluorothymidine (FLT) or Compound 9 (300-600 μCi). The mice were imaged 2 hours after the PET tracers were injected.

Blood-brain barrier crossing (brain data) [1]: can cross the blood-brain barrier | Time stable on storage ([2]; 0.5% (w/v) aqueous sodium-ascorbate in saline): at least 4 h | Stability on storage ([2]; 1×PBS for injection): degraded over time | half-life ([3]; two-phase exponential decay model, read-out: Blood short (fast) half-life): 0.26 min | half-life ([3]; two-phase exponential decay model, read-out: Blood slow half-life): 4.66 min | Share of clearance accounted for by the fast half-life ([3]; two-phase exponential decay model): 94.7% | Crossing of the blood brain barrier ([4]; intact BBB): can cross intact BBB
SMILES: O=C(Cc1c[nH]c2ccc(O)cc12)NC(Cc1c[nH]c2ccc(O)cc12)C(=O)NCCOCCOCC[18F] (stereo not drawn) [Compound 9]
Biodistribution of radioactivity in organs ([3]; major organs harvested after i.v. injection): the liver and kidney showed the highest radioactivity, followed by bone and lymph | Uptake in the brain (SUV, FIG. 12) ([4]; 300-600 μCi i.v., imaged 2 hours after injection): higher uptake in the brain compared to FLT
